Experimental data taken from patent US10653717B2, “Antibiotic compositions” (priority 2016, dated 2020).

Legend:
Test in all cases: Drug sensitivity of clinical isolated strain
[1] = system: PA-1: Pseudomonas aeruginose 1298#; format: cell-based, Pseudomonas aeruginosa
[2] = system: ECL-1: Enterobacter cloacae 0431#; format: cell-based; conditions: ECL-1 (Table 3)
[3] = system: KP-2: K. pneumonia subsp. pneumonia 0322#; format: cell-based, Klebsiella pneumonia
[4] = system: ECO-2: E. coli 2219#; format: cell-based, Escherichia coli; conditions: ECO-2 (Table 3)
[5] = system: PA-2: P. aeruginose 0009#; format: cell-based, Pseudomonas aeruginosa; conditions: PA-2 (Table 3)
[6] = system: ECL-2: E. cloacae 2301#; format: cell-based, Enterobacter cloacae
[7] = system: KP-1: Klebsiella pneumonia subsp. pneumonia 13#; format: cell-based; conditions: KP-1 (Table 3)
[8] = system: ECO-1: Escherichia coli 1139#; format: cell-based
[9] = system: ECO-3: E. coli ZY-1; format: cell-based, Escherichia coli
[10] = system: AB-1: Acinetobacter baumannii H#; format: cell-based
[11] = system: AB-2: A. baumannii 0361#; format: cell-based, Acinetobacter baumannii; conditions: AB-2 (Table 3)
Note: key: R: resistant; S: sensitive.

Compound | Drug sensitivity ([1]; PA-1 (Table 3)) | Drug sensitivity ([1]; PA-1 (table of Example 3)) | Drug sensitivity [2] | Drug sensitivity ([3]; KP-2 (Table 3)) | Drug sensitivity ([3]; KP-2 (table of Example 3)) | Drug sensitivity [4] | Drug sensitivity [5] | Drug sensitivity ([6]; ECL-2 (Table 3)) | Drug sensitivity ([6]; ECL-2 (table of Example 3)) | Drug sensitivity [7] | Drug sensitivity ([8]; ECO-1 (Table 3)) | Drug sensitivity ([8]; ECO-1 (table of Example 3)) | Drug sensitivity ([9]; E. coli ZY-1 (Table 7)) | Drug sensitivity ([9]; ECO-3 (Table 3)) | Drug sensitivity ([10]; AB-1 (Table 3)) | Drug sensitivity ([10]; AB-1 (table of Example 3)) | Drug sensitivity [11]
NCC[C@H](O)C(=O)N[C@@H]1C[C@H](N)[C@@H](O[C@H]2O[C@H](CN)[C@@H](O)[C@H](O)[C@H]2O)[C@H](O)[C@H]1O[C@H]1O[C@H](CO)[C@@H](O)[C@H](N)[C@H]1O [Amikacin] | S | S | S | S | S | S | R | S | S | R | S | S | S | S | R | R | R
CC1(C)S[C@@H]2[C@H](NC(=O)[C@H](N)c3ccccc3)C(=O)N2[C@H]1C(=O)O [Ampicillin] | R/S | R/S |  | R | R | R | R |  |  | R | S | S | S | S | R | R | R
C[C@H]1[C@H](NC(=O)/C(=N\OC(C)(C)C(=O)O)c2csc(N)n2)C(=O)N1S(=O)(=O)O [Aztreonam] | R | R | R |  |  | R | R | R | R |  | R | R | S | S | R | R | R
Cc1nnc(SCC2=C(C(=O)O)N3C(=O)[C@@H](NC(=O)Cn4cnnn4)[C@H]3SC2)s1 [Cefazolin] | R | R |  | R | R | R | R |  |  | R | R | R | S | S | R | R | R
CO/N=C(\C(=O)N[C@@H]1C(=O)N2C(C(=O)[O-])=C(C[N+]3(C)CCCC3)CS[C@H]12)c1csc(N)n1 [Cefepime] | R | R | R | R | R | R | R | R | R | R | R | R | S | S | R | R | R
CO/N=C(\C(=O)N[C@@H]1C(=O)N2C(C(=O)O)=C(COC(C)=O)CS[C@H]12)c1csc(N)n1 [Cefotaxime] | R | R | R | R | R | R | R | R | R | R | R | R | S | S | R | R | R
CC(C)(O/N=C(\C(=O)N[C@@H]1C(=O)N2C(C(=O)[O-])=C(C[n+]3ccccc3)CS[C@H]12)c1csc(N)n1)C(=O)O [Ceftazidime] | R | R | R | R | R | R | R | R | R | R | R/S | R/S | S | S | R | R | R
O=C(N[C@H](CO)[C@H](O)c1ccc([N+](=O)[O-])cc1)C(Cl)Cl [Chloramphenicol] |  |  | R | R | R | S | R | R | R | R | S | S | S | S | R | R | R
C[C@@H](O)[C@H]1C(=O)N2C(C(=O)O)=C(SCCN=CN)C[C@H]12 [Imipenem] | S | S | S | S | S | S |  | R | R | R | S | S | S | S | R | R | R
C[C@H]1COc2c(N3CCN(C)CC3)c(F)cc3c(=O)c(C(=O)O)cn1c23 [Levofloxacin] | R | R | R | R | R | R | R | R | R | R | R | R | S |  | R | R | R
C[C@@H](O)[C@H]1C(=O)N2C(C(=O)O)=C(S[C@@H]3CN[C@H](C(=O)N(C)C)C3)[C@H](C)[C@H]12 [Meropenem] | R | R | S | S | S | S | R/S | R | R | R | S | S | S | S | R | R | R
CCN1CCN(C(=O)N[C@@H](C(=O)N[C@@H]2C(=O)N3[C@@H]2SC(C)(C)[C@@H]3C(=O)O)c2ccccc2)C(=O)C1=O [Piperacillin] | R/S | R/S | R | R | R | R | R | R | R | R | R | R | S | S | R | R | R
CC1(C)[C@H](C(=O)O)N2C(=O)C[C@H]2S1(=O)=O [Sulbactam] |  |  |  | R | R | R |  |  |  | R | R/S | R/S | S | S | R | R | 
Nc1ccc(S(N)(=O)=O)cc1 [Sulfanilamide] | R | R | R |  |  | R | R | R | R |  | R | R | R | R |  |  | S
Polymyxin | S | S | R |  |  |  | S | S | S |  |  |  |  |  | S | S | S
